In ChEMBL document CHEMBL5058643, “Data for DCP probe BI-2081” (2022):

Assays:
[1] = target: Angiotensin-converting enzyme (Homo sapiens) (UniProt P12821); experiment: ACE(HU_AMTCH400) Eurofins SafetyScreen44 (BI); settings: Compound concentration 10.0 uM
[2] = target: Delta-type opioid receptor (Homo sapiens) (UniProt P41143); experiment: DELTA2/H Eurofins SafetyScreen44 (BI); settings: Compound concentration 10.0 uM
[3] = target: Tyrosine-protein kinase Lck (Homo sapiens) (UniProt P06239); experiment: LCK_CE Eurofins SafetyScreen44 (BI); settings: Compound concentration 10.0 uM
[4] = target: Sodium-dependent noradrenaline transporter (Homo sapiens) (UniProt P23975); experiment: NEUP/H Eurofins SafetyScreen44 (BI); settings: Compound concentration 10.0 uM
[5] = target: Prostaglandin G/H synthase 1 (Homo sapiens) (UniProt P23219); experiment: COX-1 Eurofins SafetyScreen44 (BI); settings: Compound concentration 10.0 uM
[6] = target: D(1A) dopamine receptor (Homo sapiens) (UniProt P21728); experiment: D1/H Eurofins SafetyScreen44 (BI); settings: filed as antagonist, Compound concentration 10.0 uM
[7] = target: Sodium-dependent dopamine transporter (Homo sapiens) (UniProt Q01959); experiment: DATRANS/HUM Eurofins SafetyScreen44 (BI); settings: Compound concentration 10.0 uM
[8] = target: Peroxisome proliferator-activated receptor gamma (Homo sapiens) (UniProt P37231); experiment: PPARG/H AG Eurofins SafetyScreen44 (BI); settings: filed as agonist, Compound concentration 10.0 uM
[9] = target: Prostaglandin E2 receptor EP4 subtype (Homo sapiens) (UniProt P35408); experiment: PEP4_HU Eurofins SafetyScreen44 (BI)
[10] = target: ATP-sensitive inward rectifier potassium channel 1 isoform X1 (Mesocricetus auratus) (UniProt A0A1U8CU73); experiment: K+/KATP/HA Eurofins SafetyScreen44 (BI); settings: Cricetinae; Compound concentration 10.0 uM
[11] = target: T1, Thyroid hormone receptor alpha (Rattus norvegicus) (UniProt P63059); experiment: THYROID HORM Eurofins SafetyScreen44 (BI)
T1 sequence (whole entry): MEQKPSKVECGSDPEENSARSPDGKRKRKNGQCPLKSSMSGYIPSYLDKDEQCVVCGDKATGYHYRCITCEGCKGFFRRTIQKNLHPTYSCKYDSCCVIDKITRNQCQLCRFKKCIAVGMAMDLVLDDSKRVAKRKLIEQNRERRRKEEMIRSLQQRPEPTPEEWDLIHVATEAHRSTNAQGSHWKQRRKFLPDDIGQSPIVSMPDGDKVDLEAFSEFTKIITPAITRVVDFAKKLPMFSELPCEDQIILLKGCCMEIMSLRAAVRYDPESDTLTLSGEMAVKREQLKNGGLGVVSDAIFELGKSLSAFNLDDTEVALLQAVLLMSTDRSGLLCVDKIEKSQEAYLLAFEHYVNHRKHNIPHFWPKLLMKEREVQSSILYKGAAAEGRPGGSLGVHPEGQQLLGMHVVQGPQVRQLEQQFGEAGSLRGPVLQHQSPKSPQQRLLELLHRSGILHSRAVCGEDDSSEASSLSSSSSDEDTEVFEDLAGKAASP

[12] = target: Adenosine receptor A3 (Homo sapiens) (UniProt P0DMS8); experiment: A3/H Eurofins SafetyScreen44 (BI); settings: Compound concentration 10.0 uM
[13] = target: T2, Alpha-1B adrenergic receptor (Homo sapiens) (UniProt P35368); experiment: ALPHA1B/R Eurofins SafetyScreen44 (BI); settings: Rattus norvegicus; Compound concentration 10.0 uM
T2 sequence (whole entry): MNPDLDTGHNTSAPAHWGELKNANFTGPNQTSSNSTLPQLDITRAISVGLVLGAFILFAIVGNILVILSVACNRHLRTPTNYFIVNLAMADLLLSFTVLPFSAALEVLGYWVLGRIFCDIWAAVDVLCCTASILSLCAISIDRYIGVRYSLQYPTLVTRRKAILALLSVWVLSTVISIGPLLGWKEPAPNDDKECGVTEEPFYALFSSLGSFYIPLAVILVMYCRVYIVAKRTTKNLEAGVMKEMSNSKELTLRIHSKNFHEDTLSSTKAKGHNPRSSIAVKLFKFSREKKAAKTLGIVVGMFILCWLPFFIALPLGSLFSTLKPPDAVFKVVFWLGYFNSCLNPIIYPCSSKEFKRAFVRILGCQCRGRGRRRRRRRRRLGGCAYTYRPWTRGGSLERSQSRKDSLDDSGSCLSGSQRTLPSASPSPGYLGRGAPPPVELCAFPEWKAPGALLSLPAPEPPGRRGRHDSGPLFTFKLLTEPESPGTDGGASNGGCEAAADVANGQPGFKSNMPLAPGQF

[14] = target: Sodium- and chloride-dependent GABA transporter 1 (Rattus norvegicus) (UniProt P23978); experiment: GABATRANS/RA Eurofins SafetyScreen44 (BI); settings: Compound concentration 10.0 uM
[15] = target: Cannabinoid receptor 1 (Homo sapiens) (UniProt P21554); experiment: CB1 Eurofins SafetyScreen44 (BI); settings: Compound concentration 10.0 uM
[16] = target: Endothelin-1 receptor (Homo sapiens) (UniProt P25101); experiment: ETA/HU Eurofins SafetyScreen44 (BI); settings: Compound concentration 10.0 uM
[17] = target: Voltage-dependent L-type calcium channel subunit alpha-1C (Rattus norvegicus, UniProt P22002); experiment: CA+/DILSI/RA Eurofins SafetyScreen44 (BI); settings: compound concentration 10 uM, read-out: % Ctrl
[18] = target: Sodium-dependent noradrenaline transporter (Homo sapiens) (UniProt P23975); experiment: NETRANS/H Eurofins SafetyScreen44 (BI); settings: Compound concentration 10.0 uM
[19] = test system: imidazoline I2 receptor (Rattus norvegicus); experiment: I2/CENTR/R Eurofins SafetyScreen44 (BI); settings: Compound concentration 10.0 uM
[20] = target: Epidermal growth factor receptor (Homo sapiens) (UniProt P00533); experiment: EGF/HU Eurofins SafetyScreen44 (BI); settings: Compound concentration 10.0 uM
[21] = target: Substance-P receptor (Homo sapiens) (UniProt P25103); experiment: NK1/HU Eurofins SafetyScreen44 (BI); settings: Compound concentration 10.0 uM
[22] = target: T3, 5-hydroxytryptamine receptor 1A (Homo sapiens) (UniProt P08908); experiment: 5HT1A/HU Eurofins SafetyScreen44 (BI); settings: Compound concentration 10.0 uM
T3 sequence (whole entry): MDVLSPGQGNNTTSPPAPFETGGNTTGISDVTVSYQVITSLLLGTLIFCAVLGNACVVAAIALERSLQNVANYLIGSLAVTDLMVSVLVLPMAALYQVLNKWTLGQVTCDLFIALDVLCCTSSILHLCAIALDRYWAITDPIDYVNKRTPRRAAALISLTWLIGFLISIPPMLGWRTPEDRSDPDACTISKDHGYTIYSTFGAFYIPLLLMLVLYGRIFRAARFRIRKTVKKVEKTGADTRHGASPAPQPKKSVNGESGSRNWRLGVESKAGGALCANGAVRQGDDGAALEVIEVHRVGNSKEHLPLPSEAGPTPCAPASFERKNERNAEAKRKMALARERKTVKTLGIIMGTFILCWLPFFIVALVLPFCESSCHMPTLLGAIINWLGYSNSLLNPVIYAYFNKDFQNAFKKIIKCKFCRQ

[23] = target: Kappa-type opioid receptor (Homo sapiens) (UniProt P41145); experiment: KAPPA/HU Eurofins SafetyScreen44 (BI); settings: Compound concentration 10.0 uM
Chain of Kappa-type opioid receptor (Homo sapiens) (P41145 whole entry): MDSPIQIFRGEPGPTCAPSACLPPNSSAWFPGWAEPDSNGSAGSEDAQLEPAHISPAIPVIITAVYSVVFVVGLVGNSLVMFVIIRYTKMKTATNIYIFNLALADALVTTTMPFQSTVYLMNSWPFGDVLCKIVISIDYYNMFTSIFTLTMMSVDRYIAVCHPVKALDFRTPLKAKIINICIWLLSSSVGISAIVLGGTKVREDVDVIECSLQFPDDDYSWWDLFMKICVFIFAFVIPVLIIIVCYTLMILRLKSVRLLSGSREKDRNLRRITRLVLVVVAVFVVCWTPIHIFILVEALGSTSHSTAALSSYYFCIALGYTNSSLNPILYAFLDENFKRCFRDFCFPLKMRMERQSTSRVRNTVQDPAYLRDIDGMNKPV

Chain of Prostaglandin E2 receptor EP4 subtype (Homo sapiens) (P35408 whole entry, canonical isoform): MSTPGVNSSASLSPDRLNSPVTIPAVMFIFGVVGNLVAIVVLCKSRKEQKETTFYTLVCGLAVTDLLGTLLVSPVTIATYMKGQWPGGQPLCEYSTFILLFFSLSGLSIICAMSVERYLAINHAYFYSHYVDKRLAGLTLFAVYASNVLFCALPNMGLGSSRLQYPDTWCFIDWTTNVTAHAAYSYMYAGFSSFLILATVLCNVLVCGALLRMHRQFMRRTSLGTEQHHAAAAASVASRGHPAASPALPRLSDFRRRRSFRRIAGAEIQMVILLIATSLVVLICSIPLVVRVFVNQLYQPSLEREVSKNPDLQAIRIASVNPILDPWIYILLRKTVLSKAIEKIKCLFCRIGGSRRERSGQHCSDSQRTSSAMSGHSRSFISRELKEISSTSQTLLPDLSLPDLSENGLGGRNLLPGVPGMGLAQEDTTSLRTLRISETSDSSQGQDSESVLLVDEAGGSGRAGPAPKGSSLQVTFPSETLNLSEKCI
Chain of Sodium-dependent noradrenaline transporter (Homo sapiens) (P23975 whole entry): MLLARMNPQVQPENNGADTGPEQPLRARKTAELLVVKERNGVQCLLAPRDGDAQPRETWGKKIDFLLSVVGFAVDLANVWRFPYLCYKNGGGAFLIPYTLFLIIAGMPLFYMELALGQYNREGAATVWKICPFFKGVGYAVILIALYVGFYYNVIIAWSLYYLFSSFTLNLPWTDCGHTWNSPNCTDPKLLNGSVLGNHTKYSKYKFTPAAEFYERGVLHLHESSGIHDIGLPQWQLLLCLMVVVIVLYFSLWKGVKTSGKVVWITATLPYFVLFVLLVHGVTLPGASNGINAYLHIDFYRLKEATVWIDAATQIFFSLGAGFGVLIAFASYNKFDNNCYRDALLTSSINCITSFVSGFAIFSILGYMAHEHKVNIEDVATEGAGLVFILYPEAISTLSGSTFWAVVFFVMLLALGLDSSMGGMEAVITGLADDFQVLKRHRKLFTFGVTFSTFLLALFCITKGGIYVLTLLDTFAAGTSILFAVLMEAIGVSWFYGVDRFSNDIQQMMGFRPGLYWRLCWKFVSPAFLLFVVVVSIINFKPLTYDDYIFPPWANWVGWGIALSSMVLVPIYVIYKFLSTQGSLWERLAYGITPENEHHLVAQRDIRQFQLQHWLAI
Chain of Sodium-dependent dopamine transporter (Homo sapiens) (Q01959 whole entry): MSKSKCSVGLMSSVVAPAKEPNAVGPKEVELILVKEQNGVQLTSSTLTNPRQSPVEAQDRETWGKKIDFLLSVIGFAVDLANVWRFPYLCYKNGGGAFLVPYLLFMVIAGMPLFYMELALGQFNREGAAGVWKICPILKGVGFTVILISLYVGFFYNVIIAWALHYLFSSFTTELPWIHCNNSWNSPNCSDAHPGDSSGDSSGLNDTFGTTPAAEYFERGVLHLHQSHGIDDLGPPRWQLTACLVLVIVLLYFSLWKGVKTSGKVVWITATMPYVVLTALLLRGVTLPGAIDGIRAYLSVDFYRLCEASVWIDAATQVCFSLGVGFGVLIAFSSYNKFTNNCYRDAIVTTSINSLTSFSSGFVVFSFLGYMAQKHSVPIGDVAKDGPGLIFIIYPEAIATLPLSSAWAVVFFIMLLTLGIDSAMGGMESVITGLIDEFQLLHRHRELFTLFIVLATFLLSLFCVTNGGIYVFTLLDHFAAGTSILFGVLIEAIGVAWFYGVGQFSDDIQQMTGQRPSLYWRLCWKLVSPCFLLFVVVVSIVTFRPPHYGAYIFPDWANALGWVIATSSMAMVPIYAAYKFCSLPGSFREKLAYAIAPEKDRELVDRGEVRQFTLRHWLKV
Chain of Endothelin-1 receptor (Homo sapiens) (P25101 whole entry): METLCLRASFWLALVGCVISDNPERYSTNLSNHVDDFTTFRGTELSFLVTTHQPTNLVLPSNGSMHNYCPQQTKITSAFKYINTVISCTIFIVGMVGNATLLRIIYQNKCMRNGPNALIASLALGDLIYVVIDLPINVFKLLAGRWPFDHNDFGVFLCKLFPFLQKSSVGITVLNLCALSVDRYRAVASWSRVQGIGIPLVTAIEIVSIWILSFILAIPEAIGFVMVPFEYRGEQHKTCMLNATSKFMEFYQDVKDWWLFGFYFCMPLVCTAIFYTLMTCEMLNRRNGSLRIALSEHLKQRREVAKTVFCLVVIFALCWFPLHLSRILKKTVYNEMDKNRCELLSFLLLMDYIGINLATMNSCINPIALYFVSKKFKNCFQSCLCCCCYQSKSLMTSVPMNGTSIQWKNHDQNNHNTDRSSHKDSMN
Chain of ATP-sensitive inward rectifier potassium channel 1 isoform X1 (Mesocricetus auratus) (A0A1U8CU73 as listed by the source): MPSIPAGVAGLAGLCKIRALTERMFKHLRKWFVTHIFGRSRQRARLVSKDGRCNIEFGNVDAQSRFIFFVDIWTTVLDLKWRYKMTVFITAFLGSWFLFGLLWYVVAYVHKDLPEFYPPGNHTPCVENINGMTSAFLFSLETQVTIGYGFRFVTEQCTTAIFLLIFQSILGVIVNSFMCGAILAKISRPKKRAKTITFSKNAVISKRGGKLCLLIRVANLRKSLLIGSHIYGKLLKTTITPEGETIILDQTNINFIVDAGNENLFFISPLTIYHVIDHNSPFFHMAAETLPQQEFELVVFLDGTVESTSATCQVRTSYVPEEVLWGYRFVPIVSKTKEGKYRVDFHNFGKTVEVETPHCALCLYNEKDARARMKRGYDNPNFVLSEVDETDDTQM
Chain of Tyrosine-protein kinase Lck (Homo sapiens) (P06239 2-509 limits assumed): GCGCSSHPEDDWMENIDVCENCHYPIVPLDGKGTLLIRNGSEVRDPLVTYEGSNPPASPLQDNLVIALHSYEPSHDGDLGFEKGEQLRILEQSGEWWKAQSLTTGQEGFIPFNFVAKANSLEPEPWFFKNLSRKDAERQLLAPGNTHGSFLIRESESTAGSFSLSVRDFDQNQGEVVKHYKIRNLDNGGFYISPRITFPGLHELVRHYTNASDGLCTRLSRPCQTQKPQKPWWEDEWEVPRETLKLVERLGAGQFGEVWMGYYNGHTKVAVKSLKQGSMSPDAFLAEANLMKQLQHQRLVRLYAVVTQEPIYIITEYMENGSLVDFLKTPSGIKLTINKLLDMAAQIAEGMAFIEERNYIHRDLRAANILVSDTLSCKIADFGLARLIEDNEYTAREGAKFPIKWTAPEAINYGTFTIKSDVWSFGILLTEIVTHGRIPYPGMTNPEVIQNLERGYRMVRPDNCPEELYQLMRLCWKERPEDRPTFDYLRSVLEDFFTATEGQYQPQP
Chain of Peroxisome proliferator-activated receptor gamma (Homo sapiens) (P37231 whole entry): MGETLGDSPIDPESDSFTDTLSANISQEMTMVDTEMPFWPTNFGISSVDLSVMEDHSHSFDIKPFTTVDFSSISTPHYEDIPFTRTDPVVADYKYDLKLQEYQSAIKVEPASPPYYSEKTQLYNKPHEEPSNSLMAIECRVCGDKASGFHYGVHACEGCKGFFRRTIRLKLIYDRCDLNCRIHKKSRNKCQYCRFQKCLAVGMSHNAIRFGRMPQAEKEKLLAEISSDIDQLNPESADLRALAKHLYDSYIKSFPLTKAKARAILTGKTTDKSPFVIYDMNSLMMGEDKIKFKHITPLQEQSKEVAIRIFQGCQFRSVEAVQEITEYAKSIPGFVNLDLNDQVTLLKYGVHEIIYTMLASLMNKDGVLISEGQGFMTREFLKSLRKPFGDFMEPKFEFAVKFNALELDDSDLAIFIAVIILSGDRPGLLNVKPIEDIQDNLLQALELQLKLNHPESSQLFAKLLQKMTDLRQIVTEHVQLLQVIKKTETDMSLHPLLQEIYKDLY
Chain of Prostaglandin G/H synthase 1 (Homo sapiens) (P23219 whole entry): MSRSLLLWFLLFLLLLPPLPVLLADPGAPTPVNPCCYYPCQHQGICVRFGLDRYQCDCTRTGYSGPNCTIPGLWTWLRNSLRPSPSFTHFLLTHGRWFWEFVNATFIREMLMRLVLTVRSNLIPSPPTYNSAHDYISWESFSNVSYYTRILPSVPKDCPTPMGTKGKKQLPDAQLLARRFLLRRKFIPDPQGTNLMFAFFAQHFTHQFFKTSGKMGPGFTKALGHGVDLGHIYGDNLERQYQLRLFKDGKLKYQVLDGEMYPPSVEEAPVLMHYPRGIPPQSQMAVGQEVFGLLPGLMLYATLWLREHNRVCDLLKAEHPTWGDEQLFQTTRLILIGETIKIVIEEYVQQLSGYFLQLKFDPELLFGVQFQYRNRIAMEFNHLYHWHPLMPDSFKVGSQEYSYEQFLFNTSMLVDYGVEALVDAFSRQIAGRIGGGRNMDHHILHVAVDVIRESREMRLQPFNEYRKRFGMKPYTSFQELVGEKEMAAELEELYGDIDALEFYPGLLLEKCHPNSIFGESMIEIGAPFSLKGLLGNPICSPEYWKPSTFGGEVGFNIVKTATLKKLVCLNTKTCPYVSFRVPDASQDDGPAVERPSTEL
Chain of Substance-P receptor (Homo sapiens) (P25103 whole entry): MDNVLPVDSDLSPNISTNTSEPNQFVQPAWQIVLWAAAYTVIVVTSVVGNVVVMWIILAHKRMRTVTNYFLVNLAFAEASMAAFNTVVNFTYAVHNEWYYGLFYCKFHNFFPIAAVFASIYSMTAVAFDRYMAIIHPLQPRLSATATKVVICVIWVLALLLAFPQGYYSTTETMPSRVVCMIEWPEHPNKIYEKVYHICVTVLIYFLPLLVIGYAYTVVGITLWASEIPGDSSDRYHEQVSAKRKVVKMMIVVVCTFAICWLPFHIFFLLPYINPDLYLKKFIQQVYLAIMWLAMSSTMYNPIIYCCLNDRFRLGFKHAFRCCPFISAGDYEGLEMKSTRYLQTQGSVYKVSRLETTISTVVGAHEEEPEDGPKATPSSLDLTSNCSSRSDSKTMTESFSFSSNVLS

COCCCS(=O)(=O)c1cc(C)c(-c2ccc(F)c3c2CC[C@H]3Oc2ccc3c(c2)OC[C@H]3CC(=O)O)c(C)c1
inactive: residual activity [1] 99% | residual activity [2] 89% | residual activity [3] 77% | residual activity [4] 83% | residual activity [5] 88% | residual activity [6] 87% | residual activity [7] 84%

Cc1cc(OCCC(C)(C)O)cc(C)c1-c1ccc(F)c2c1CC[C@H]2Oc1ccc2c(c1)OC[C@H]2CC(=O)O
active: residual activity [8] 8% | residual activity ([9]; Compound concentration 30.0 uM) 11% | residual activity ([11]; Compound concentration 10.0 uM) 39.5% | residual activity ([11]; Compound concentration 30.0 uM) 2%
100% (not active): activity at 10 µM [17]
inactive: residual activity ([9]; Compound concentration 0.3 uM) 102% | residual activity ([9]; Compound concentration 1.0 uM) 108% | residual activity ([9]; Compound concentration 3.0 uM) 92% | residual activity ([9]; Compound concentration 10.0 uM) 55% | residual activity [10] 95% | residual activity ([11]; Compound concentration 0.3 uM) 97% | residual activity ([11]; Compound concentration 1.0 uM) 95% | residual activity ([11]; Compound concentration 3.0 uM) 77% | residual activity [12] 100% | residual activity [13] 114% | residual activity [14] 88% | residual activity [15] 100% | residual activity [16] 91% | residual activity [18] 68% | residual activity [19] 86% | residual activity [20] 99% | residual activity [21] 113% | residual activity [22] 118% | residual activity [23] 106%
